Measurements: US20170112789A1, “INTRAVENOUS BACLOFEN AND METHODS OF TREATMENT” (Allaysis, LLC, priority 2015, published 2017)

Key:
healthy human volunteers = test: Tolerability of the intravenous formulation in the crossover study (Example 3); format: in vivo
Method: (§1) Twelve healthy human volunteers were recruited. The volunteers were medication free for 48 hours before, during, and 24 hours after the administration of the study drug.
(§2) The 12 volunteers participated in a randomized, open-label, 2-way crossover study to compare the pharmacokinetics and bioavailability of oral baclofen with an intravenous baclofen formulation. The oral formulation was a 10 mg baclofen tablet. A single intravenous dose of 5 mg was administered over 15 minutes, using the commercially available 2 mg/mL intrathecal baclofen formulation (Lioresal Intrathecal). Blood samples (6 mL) for the measurement of plasma concentrations of baclofen were collected in blood collection tubes containing K2 ethylenediaminetetraacetic acid at the following times: prior to dosing; at 5, 15, and 30 minutes; and at 1, 2, 4, 6, 8, 10, 12, and 24 hours after drug administration.

[1] = Pharmacokinetics and bioavailability of oral vs intravenous baclofen, randomized open-label 2-way crossover study (Example 3); format: in vivo, human; settings: for Cmax: single dose
Method: as §1, §2
Study plasma samples were prepared by adding 50 μL of a 500 μg/mL levetiracetam solution (internal standard) to 250 μL of K2 ethylenediaminetetraacetic acid (EDTA) human plasma. Baclofen and the internal standard were extracted from plasma by precipitating the protein with methanol and drying it under nitrogen at approximately 40° C. The dried residues were reconstituted in 300 μL of a mobile phase consisting of 20 mM ammonium acetate-methanol (75:25) solution. After 1 minute of vortex mixing, the reconstituted sample solution was filtered and injected onto the high-performance liquid chromatograph-mass spectrometer system. Standard curve samples over a range of 20 to 400 ng/mL baclofen and quality control samples containing 30 (low), 80 (medium), and 240 ng/mL (high) baclofen were prepared and analyzed in triplicate along with the study samples. The assay was linear over the range 20-400 ng/mL with a lower limit of quantification of 20 ng/mL.
Baclofen concentration-time data were analyzed using a noncompartmental pharmacokinetic approach with Phoenix software (version 6.2; Pharsight Corporation, Mountain View, Calif.). The terminal rate constant (λz) was determined from the slope of the terminal log-linear portion of the plasma concentration-time curve, and the terminal half-life (t1/2) was calculated as In 2/(λz). Maximum plasma concentrations (Cmax) and time to maximum concentration (Tmax) were determined by direct observation of the data. The area under the concentration-time curve to the last nonzero plasma concentration (Clast) that was above half the lower limit of quantification (10 ng/mL) was calculated by the trapezoidal rule and reported as AUClast The area under the concentration-time curve extrapolated to infinity (AUC0-∞) was calculated as AUClast+(Clast/λz). Mean and standard deviation values for the parameters were also obtained using the descriptive statistics tool in Phoenix version 6.2. A paired t-test was used to determine if statistical differences existed in log normalized, dose-adjusted area under the curve between oral and intravenous arms.

healthy adults = test: Tolerability/safety (sedation, nystagmus, ataxia) in the dose escalation study (Example 4); format: in vivo, human; settings: for subjects with asymptomatic nystagmus: 10 minute infusion, of twelve subjects
Method: (§3) Thirty-six healthy adults participated in the study.
(§4) The thirty-six subjects were enrolled in a randomized, open-label, cross over study to evaluate the safety profile and pharmacokinetics of oral and an investigational intravenous baclofen formulation at clinically relevant doses. Three cohorts of twelve subjects received single doses of baclofen: 7.5, 11.5 or 15 mg intravenously and 10, 15, or 20 mg taken orally with a 48 hour washout phase. The highest dosing cohort received an additional 15 mg extended (60 minute) infusion. Blood samples for baclofen pharmacokinetic analysis were collected pre-dose and at regular intervals over a 24 hour time period. Over this 24 hour period subjects were assessed for sedation, nystagmus and ataxia to evaluate clinical response. Maximum concentration (Cmax) and time to maximum concentration (Tmax) were determined by visual inspection. Noncompartmental pharmacokinetic analyses were used to estimate area under the curve (AUC), half life (t1/2), clearance (CL) and volume of distribution. Absolute bioavailability was calculated using dose normalized oral and intravenous AUCs. Dose proportionality was assessed using analysis of variance (ANOVA) and a power model. Bioequivalence was evaluated using Phoenix Software (Centara, Pharsight Corporation, Mountain View, Calif.).

[2] = Pharmacokinetics of oral and intravenous baclofen at clinically relevant doses, dose escalation crossover study (Example 4); format: in vivo, human; settings: for Cmax / half-life / bioavailability: human, plasma
Method: as §3, §4

[3] = cited from earlier work
[4] = human, plasma, 5 mg IV, mean ± SD
[5] = human, plasma, 10 mg oral, mean ± SD
[6] = iv, 7.5 mg, IV 10 min infusion 7.5 mg, mean
[7] = iv, 11.5 mg, IV 10 min infusion 11.5 mg, mean
[8] = iv, 15 mg, IV 10 min infusion 15 mg, mean
[9] = iv, 15 mg, IV 60 min infusion 15 mg, mean

time point of observed maximum baclofen concentration ([1]; 5 mg IV formulation): 5 min | AUC0-∞/Dose ([1]; 5 mg IV, mean ± SD): 141 ± 33 ng·h/mL/mg | AUC0-∞/Dose ([1]; 10 mg oral, mean ± SD): 102 ± 23 ng·h/mL/mg | T1/2 ([1]; 10 mg oral, mean ± SD): 4.03 ± 0.73 h | half-life ([1]; human, plasma, iv, 5 mg, 5 mg IV, mean ± SD): 4.52 h | bioavailability ([1]; human, plasma, oral, 10 mg, 10 mg oral tablet, absolute, vs 5 mg IV, mean ± SD): 74% | half-life ([1]; human, plasma, po, 10 mg, 10 mg oral, mean ± SD): 4 h | AUC(0-inf) [1, 4]: 707 ± 166 ng·h/mL | AUC(0-t) [1, 4]: 593 ± 111 ng·h/mL | AUC(0-inf) [1, 5]: 1020 ± 232 ng·h/mL | AUC(0-t) [1, 5]: 878 ± 199 ng·h/mL | Tmax ([1]; human, plasma, 10 mg oral, median (min, max)): 1 h | Cmax ([1]; human, 5 mg IV over 15 minutes, plasma, mean ± SD, 12 volunteers): 310 ng/mL | Cmax ([1]; human, 10 mg oral tablet, plasma, mean ± SD): 174 ng/mL | Cmax ration ([2]; 15 mg intravenous infusion over 10 minutes vs oral): 263% | Cmax ration ([2]; 15 mg intravenous infusion over 60 minutes vs oral): 149% | AUC(0-inf) ([2]; IV 10 min infusion 7.5 mg, mean): 562 ng·h/mL | AUC(0-inf) ([2]; IV 10 min infusion 11.5 mg, mean): 1186 ng·h/mL | AUC(0-inf) ([2]; IV 10 min infusion 15 mg, mean): 1520 ng·h/mL | AUC(0-inf) ([2]; IV 60 min infusion 15 mg, mean): 1447 ng·h/mL | AUC(0-inf) ([2]; PO 10 mg, mean): 714 ng·h/mL | AUC(0-inf) ([2]; PO 15 mg, mean): 1201 ng·h/mL | AUC(0-inf) ([2]; PO 20 mg, mean): 1598 ng·h/mL | dose proportionality of mean Cmax ([2]; both forms of administration, ANOVA and power model): increased proportionally with dose | Cmax [2, 6]: 310 ng/mL | half-life [2, 6]: 3.37 h | Cmax [2, 7]: 524 ng/mL | half-life [2, 7]: 4.97 h | Cmax [2, 8]: 720 ng/mL | half-life [2, 8]: 5.82 h | Cmax [2, 9]: 382 ng/mL | half-life [2, 9]: 6.22 h | bioavailability ([2]; oral, data from all cohorts combined, read-out: mean bioavailability): 89% | Cmax ([2]; po, 10 mg, PO 10 mg, mean): 124 ng/mL | half-life ([2]; po, 10 mg, PO 10 mg, mean): 3.94 h | Cmax ([2]; po, 15 mg, PO 15 mg, mean): 201 ng/mL | half-life ([2]; po, 15 mg, PO 15 mg, mean): 4.65 h | Cmax ([2]; po, 20 mg, PO 20 mg, mean): 255 ng/mL | half-life ([2]; po, 20 mg, PO 20 mg, mean): 5.49 h | bioavailability ([2]; po, data from all cohorts combined, read-out: absolute oral bioavailability, range): 42 to 132% | bioavailability ([2]; PO 10 mg (cohort 1), mean, read-out: Bioavailability): 102% | bioavailability ([2]; PO 15 mg (cohort 2), mean, read-out: Bioavailability): 80% | bioavailability ([2]; PO 20 mg (cohort 3), mean, read-out: Bioavailability): 85%
SMILES: NCC(CC(=O)O)c1ccc(Cl)cc1 (racemic) [Baclofen, 4-amino-3-(4-chlorophenyl) butanoic acid]
tolerability of the intravenous formulation (healthy human volunteers; 5 mg IV over 15 minutes): well tolerated | severity of treatment-emergent adverse events (healthy human volunteers; characterized by the investigator): mild in severity | time for all subjects to return to baseline values after drug administration (healthy human volunteers; in vivo): ≤ 6 h | subjects with asymptomatic nystagmus (healthy adults; 7.5 mg): two | subjects with asymptomatic nystagmus (healthy adults; 11.5 mg): six | occurrence of nystagmus (healthy adults; 15 mg 60 minute infusion): not observed | subjects with asymptomatic nystagmus (healthy adults; 15 mg): six | ataxia (healthy adults; after the 20 mg oral dose): one subject experienced mild transient ataxia | tolerability (healthy adults; all oral and IV doses): generally well tolerated | sedation, changes from baseline (healthy adults; by route of administration or by dose): not statistically significant | adverse effects (healthy adults; following both oral and intravenous doses): Mild, self-limited adverse effects | dose proportionality of AUC ([2]; ANOVA and power model analysis): greater than proportional increase with dose | bioequivalence of oral and intravenous doses ([2]; based on AUC and Cmax): bioequivalent based on AUC, but not based on Cmax | solubility in water [3]: slightly soluble in water
